Experimental data: PubChem BioAssay (NCI)
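Five concentrations, 48 hours, 96-well plates. The concentration for 50% growth inhibition is given as GI50. TGI: concentration producing complete growth inhibition.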

What was measured:
Test in all cases: growth of human tumour cells (NCI), 48 h
[1] = test system: A549 NSCLC
[2] = test system: HCC-2998 colon
[3] = test system: HOP-62 NSCLC
[4] = test system: NCI-H226 lung
[5] = test system: OVCAR-3 ovarian
[6] = test system: OVCAR-5 ovarian
[7] = test system: SK-OV-3 ovarian
[8] = test system: TK-10 renal
[9] = test system: UACC-257 melanoma
[10] = test system: HOP-92 NSCLC

For `O=[N+]([O-])c1ccc(C(c2c[nH]c3ccccc23)c2c[nH]c3ccccc23)cc1`, the TGI [1] was 41.4 µM, the TGI [2] was 39.3 µM and the TGI [3] was 30.3 µM. For the same compound, the TGI [4] was 32.1 µM, the TGI [5] was 8.31 µM and the TGI [6] was 54.4 µM. The TGI [7] was 33.1 µM, the TGI [8] was 28.5 µM and the TGI [9] was 9.79 µM.
With `Nc1nc(SCc2ccccn2)c2ncn(C3CCCC3)c2n1` the TGI [1] was greater than 100 µM, the TGI [2] was greater than 100 µM and the TGI [3] was greater than 100 µM. For the same compound, the TGI [4] was greater than 100 µM, the TGI [5] was greater than 100 µM and the TGI [6] was greater than 100 µM. It also gave a TGI [7] greater than 100 µM, a TGI [8] greater than 100 µM and a TGI [9] greater than 100 µM.
`CC[C@H](C)N(CCN)C(=O)c1cc2ccccc2c(-c2ccccc2Cl)n1` showed a TGI [1] greater than 100 µM, a TGI [2] of 9.06 µM and a TGI [3] of 33.3 µM. For the same compound, the TGI [4] was 29.7 µM, the TGI [5] was 34 µM and the TGI [6] was 27.9 µM. For the same compound, the TGI [8] was 25.5 µM and the TGI [9] was 3.37 µM.
`O=C(CNc1nncs1)NO` showed a TGI [1] greater than 100 µM, a TGI [2] greater than 100 µM and a TGI [3] greater than 100 µM. The TGI [10] was greater than 100 µM, the TGI [5] was greater than 100 µM and the TGI [6] was greater than 100 µM. The TGI [7] was greater than 100 µM, the TGI [8] was greater than 100 µM and the TGI [9] was greater than 100 µM.
Work on `N#CCC1COc2ccccc2O1` (configuration not stated) yielded a TGI [1] greater than 10 µM, a TGI [2] greater than 10 µM and a TGI [3] greater than 10 µM. It also gave a TGI [10] greater than 10 µM, a TGI [6] greater than 10 µM and a TGI [7] greater than 10 µM. The TGI [8] was greater than 10 µM and the TGI [9] was greater than 10 µM.
Compound `CC1=C(C)C(=O)c2c(cc3ccc4ccccc4n23)C1=O` has a TGI [1] greater than 100 µM, a TGI [2] greater than 100 µM and a TGI [4] greater than 100 µM. It also gave a TGI [5] greater than 100 µM, a TGI [6] greater than 100 µM and a TGI [7] greater than 100 µM. The TGI [8] was greater than 100 µM.
Work on `CCOC(=O)c1c2c(n3ccc(NC(=O)CCN4CCCC4)cc13)C(=O)c1ncccc1C2=O` yielded a GI50 [1] of 1.03 µM, a TGI [1] of 2.67 µM and a GI50 [3] of 1.08 µM. For the same compound, the TGI [3] was 3.11 µM, the GI50 [10] was 11.8 µM and the TGI [10] was 27.5 µM. It also gave a GI50 [4] of 19 µM, a TGI [4] of 45.1 µM and a GI50 [5] of 1.48 µM. It also gave a TGI [5] of 3.12 µM, a GI50 [6] of 1.57 µM and a TGI [6] of 3.42 µM. The GI50 [7] was 2.22 µM, the TGI [7] was 23.5 µM and the GI50 [8] was 1.26 µM. It also gave a TGI [8] of 2.61 µM, a GI50 [9] of 13.8 µM and a TGI [9] of 33.9 µM.
With `Cc1ccc(-[n+]2c3cc(N)c(C)cc3nc3cc(C)c(Nc4ccccc4)cc32)cc1` the GI50 [1] was 0.0441 µM, the TGI [1] was 1.19 µM and the GI50 [2] was 0.566 µM. It also gave a TGI [2] of 1.82 µM, a GI50 [3] of 0.0472 µM and a TGI [3] of 0.397 µM. For the same compound, the GI50 [10] was 0.15 µM, the TGI [10] was 0.556 µM and the GI50 [6] was 0.357 µM. It also gave a TGI [6] of 1.48 µM, a GI50 [7] of 0.258 µM and a TGI [7] of 1.62 µM. The GI50 [8] was 0.148 µM, the TGI [8] was 1.04 µM and the GI50 [9] was 0.242 µM. The TGI [9] was 0.952 µM.
`O=C(Oc1ccc(Cl)cc1Cl)c1ccccc1Nc1ccnc(C(F)(F)F)c1` showed a GI50 [1] of 11.1 µM, a TGI [1] of 33.1 µM and a GI50 [2] of 3.25 µM. The TGI [2] was 5.49 µM, the GI50 [10] was 11.6 µM and the TGI [10] was 43.4 µM. It also gave a GI50 [4] of 3.46 µM, a TGI [4] of 18.6 µM and a GI50 [5] of 11 µM. The TGI [5] was 24.9 µM, the GI50 [6] was 7.9 µM and the TGI [6] was 22 µM. The GI50 [8] was 4.05 µM, the TGI [8] was 23.9 µM and the GI50 [9] was 10.6 µM. It also gave a TGI [9] of 26 µM.
Compound `CCC[CH2][Sn-]([CH2]CCC)([CH2]CCC)[O]c1cc(Cl)c(Cl)cc1Cl` has a GI50 [1] of 0.205 µM, a TGI [1] of 0.502 µM and a GI50 [2] of 0.176 µM. It also gave a TGI [2] of 0.334 µM, a GI50 [3] of 0.228 µM and a TGI [3] of 0.507 µM. The GI50 [10] was 0.106 µM, the TGI [10] was 0.395 µM and the GI50 [4] was 0.00872 µM. The TGI [4] was 0.244 µM, the GI50 [5] was 0.176 µM and the TGI [5] was 0.365 µM. It also gave a GI50 [7] of 0.15 µM, a TGI [7] of 0.379 µM and a GI50 [8] of 0.287 µM. The TGI [8] was 0.957 µM.
With `CNC(P(=O)([O-])[O-])P(=O)([O-])[O-].N.N.[Pt+2]` the GI50 [1] was greater than 100 µM, the TGI [1] was greater than 100 µM and the GI50 [2] was greater than 100 µM. It also gave a TGI [2] greater than 100 µM, a GI50 [4] greater than 100 µM and a TGI [4] greater than 100 µM. For the same compound, the GI50 [5] was greater than 100 µM, the TGI [5] was greater than 100 µM and the GI50 [6] was greater than 100 µM. For the same compound, the TGI [6] was greater than 100 µM, the GI50 [8] was greater than 100 µM and the TGI [8] was greater than 100 µM.
Compound `COc1ccc2cc(C(=O)/C=C/c3cc(OC)c(OC)c(OC)c3)ccc2c1` has a GI50 [1] of 2.56 µM, a TGI [1] of 44.5 µM and a GI50 [3] of 9.88 µM. For the same compound, the TGI [3] was 20.8 µM, the GI50 [10] was 21.9 µM and the TGI [10] was greater than 50 µM. The GI50 [5] was 5.86 µM, the TGI [5] was greater than 50 µM and the GI50 [7] was 12.5 µM. For the same compound, the TGI [7] was 46.4 µM, the GI50 [8] was 9.61 µM and the TGI [8] was 31.4 µM.
Work on `CC1=C(C(=O)Nc2c(C)cccc2C)C(c2ccc3c(c2)OCO3)C(C(=O)Nc2c(C)cccc2C)=C(C)N1` yielded a TGI [1] of 59 µM, a TGI [2] of 32.3 µM and a TGI [3] of 44 µM. The TGI [4] was 32.3 µM, the TGI [5] was 98.6 µM and the TGI [6] was 33.7 µM. It also gave a TGI [7] greater than 100 µM, a TGI [8] of 62.1 µM and a TGI [9] of 32.3 µM.
`COC(=O)C1CC2(CC3=C1CCCC3)OCCO2` (configuration not stated) gave a TGI [1] greater than 100 µM, a TGI [2] greater than 100 µM and a TGI [3] greater than 100 µM. It also gave a TGI [10] greater than 100 µM, a TGI [5] greater than 100 µM and a TGI [7] greater than 100 µM. The TGI [8] was greater than 100 µM and the TGI [9] was greater than 100 µM.
